Measurements as given in US20220265659A1, “METHODS AND COMPOSITIONS FOR TREATING PAX6-DEFICIENCY RELATED DISEASE” (INSERM (INSTITUT NATIONAL DE LA SANTÉ ET DE AL RECHERCHE …, priority 2019, published 2022).

Experiments:
[1] = test system: PAX6 protein; experiment: Western blot analysis of PAX6 protein production; assay type: cell-based, Human; set-up: rescue of PAX6 haploinsufficiency in vitro: unit of the concentration uncertain; conditions: for rescue of the production of endogenous PAX6 protein: mutated limbal stem cells
Method: (§1) Cells and culture conditions: Human mutated limbal epithelial stem cells (mut-LSCs) were obtained by genome editing (Crispr/cas9) of primary limbal stem cells, as described in Roux et al. (Roux, 2018 Stem cells). mut-LSCs and WT controls were cultured, as described earlier (Roux, 2018 Stem cells), in Keratinocyte serum-free medium (K-sfm) (Gibco™, Life Technologies), supplemented with 25 μg/mL Bovine Pituitary Extract (BPE; Gibco™, Life Technologies), 0.2 ng/mL Epidermal Growth Factor (EGF, Peprotech), 0.4 mM CaCl2, 2 mM Glutamine (Gibco™, Life Technologies) and 100 U/mL Penicillin/Streptomicin (Gibco™, Life Technologies). Routine subcultures were obtained by detaching cells with StemPro™ Accutase™ Cell Dissociation Reagent (Gibco™, Life Technologies) and replating at 2,000 cells/cm^2 (T-LSCs) or 3,000 cells/cm^2 (PAX6^+/− T-LSCs). All cells were negative for mycoplasma contamination (monthly tested).
[…] No cell toxicity has been observed up to 10 μg/mL. […] As positive control, 2 μg/mL recombinant PAX6 protein coupled with an 11R-tag (recPAX6, LD Biopharma Inc) was added, as described elsewhere (Roux et al. 2018 Stem cells).
Western blot analysis: Cells were harvested as a dry pellet, […] recPAX6 protein or its buffer for rescue experiments, lysed in RIPA buffer supplemented with Protease and Phosphatase Inhibitor Cocktail EDTA-Free (Roche) for 15 min on ice and centrifuged for 15 min at 4° C. at 15,000×g. Protein concentration was measured using Pierce BCA Protein Assay kit (Thermo Fisher Scientific) following manufacturer instructions. Thirty micrograms of total protein or 10 ng of recPAX6 protein were loaded on a SDS-PAGE gel (10%), transferred to nitrocellulose membranes using semi-dry method. Membranes were pre-stripped using Re-Blot Plus Strong solution (EMD Millipore) for 15 min, blocked twice for 5 min in 5% milk solution and incubated in primary antibody (PAX6, ab2237, Millipore, 1/1,000) overnight at 4° C. After 3 washing of 10 min in TBS with 0.2% Tween (TBS-T), membranes were incubated for 1 h with secondary antibody (Goat anti-rabbit HRP, BD Pharmingen) diluted in TBS-T 5% milk solution at 1/1,000. Proteins were visualized using chemiluminescence detection (Clarity™ Western ECL Substrate, Bio-Rad) on a gel imaging system (ImageQuant LAS 4000). Membranes were stripped again, incubated 90 min at room temperature with ACTIN (sc1615, 1/500, Santa Cruz) antibody diluted in TBS-T 5% milk, washed 3×10 min in TBS-T and incubated for 1 h in secondary antibody (Rabbit anti-goat HRP, 1/20,000, Jackson ImmunoResearch) at room temperature before revelation. Signal quantifications were made using ImageJ 1.49 software (NIH). Results are presented after ACTIN normalization.

[2] = test system: Mut-LSCs; experiment: Rescue experiments: compound added to the culture medium of Mut-LSCs (cell toxicity, optimal concentration); assay type: cell-based, Human; conditions: qRT-PCR, cell migration and cell adhesion
Method: as §1
(§2) Rescue experiments: Mut-LSCs were treated with each compound (Duloxetine, Ritanserine and Topotecan) directly added into the culture medium from 0.5 μg/mL to 4 μg/mL. No cell toxicity has been observed up to 10 μg/mL. The optimal concentration for each experiment (qRT-PCR, cell migration and cell adhesion) was 0.5 μg/mL. As positive control, 2 μg/mL recombinant PAX6 protein coupled with an 11R-tag (recPAX6, LD Biopharma Inc) was added, as described elsewhere (Roux et al. 2018 Stem cells).

[3] = test system: PAX6-target gene expression; experiment: qRT-PCR analysis of PAX6-target gene expression in rescue experiments; assay type: cell-based, Human; conditions: mutated limbal stem cells
Method: as §1, §2
(§3) qRT-PCR analysis: Cells were treated for 10 h with either compound or recPAX6 for rescue experiments, and harvested as a dry pellet. RNA was then extracted using RNEasy Mini kit (Qiagen) and cDNA were synthetized from 1 μg RNA using iScript cDNA synthesis kit (Bio-Rad). Quantitative PCR were performed in triplicate using […] SYBR Green PCR Master Mix (Absource Biotools). Expression of each gene was calculated using the 2^−ΔΔCt method. Results are presented as fold change normalized to B2M house-keeping gene and relative to control (treated with protein buffer or untreated) T-LSCs. Specific primers sequences used are listed in Suppl.

[4] = test system: mutated limbal stem cells (mut-LSCs); experiment: In vitro migration test on IBIDI chambers; assay type: cell-based, Human; conditions: for rescue of cell migration: mutated limbal stem cells
Method: as §1
In vitro migration test: WT and mut-LSCs were seeded into culture-inserts 2 well at 25,000 cells per well in 6-well plates (IBIDI®). […] Sixteen hours after plating, the inserts were removed creating a gap of 500 μm between cells. Patches were overlaid with culture medium and closure of the gap was monitored for 10 h, taking pictures at regular time intervals. Gap width was measured using ImageJ 1.49 software (NIH). Results are presented as percent of gap width normalized at 100% at t=0 h.

[5] = test system: PAX6; experiment: qRT-PCR analysis for PAX6 expression with amplicon sequencing; assay type: cell-based, Human
Method: as §1, with “T-LSCs).” for “T-LSCs). All cells were negative for mycoplasma contamination (monthly tested).”
as §3, with “Results are presented as fold change normalized to B2M house-keeping gene and relative to control (treated with protein buffer or untreated) T-LSCs.” left out

[6] = test system: limbal stem cells (mut-LSC); conditions: mut-LSC with a nonsense mutation found in patients; cited from earlier work

Compound | rescue of PAX6 haploinsufficiency in vitro ([1]; FIG. 1: mut-LT limbal stem cells, 0.5 (unit uncertain), 10 h, qRT-PCR for PAX6-target gene expression (A), western blot for PAX6 protein (B)) | rescue of the production of endogenous PAX6 protein [1] | optimal concentration for each experiment [2] | rescue of PAX6-target gene expression [3] | rescue of migration of mutated limbal cells ([4]; FIG. 2: mut-LT, 0.5 µg/mL, 2 h before migration start, IBIDI chambers) | rescue of cell migration [4] | amplification of the mutated allele (amplicons sequenced) ([5]; FIG. 3: mut-LSCs + Topotecan) | WT allele transcription (PAX6 expression by qRT-PCR) ([5]; FIG. 3: mutated cells (mut-LSC)) | PAX6 expression by qRT-PCR ([5]; FIG. 3: treated WT-LSCs (normal LSCs)) | rescue of PAX6 gene expression at the RNA level ([5]; mutated limbal stem cells) | rescue of altered PAX6 target gene expression, cell adhesion, cell migration and proliferation [6] | PAX6 protein production ([1]; FIG. 4: mutated LT (W) cells, western blot, 0.5, 1 or 5 mM) | PAX6 protein production ([1]; FIG. 5: W mutant limbal cells)
CC[C@@]1(O)C(=O)OCc2c1cc1n(c2=O)Cc2cc3c(CN(C)C)c(O)ccc3nc2-1 [Topotecan, topotecan] | can rescue | able to rescue | 0.5 µg/mL | able to rescue | can rescue | able to rescue | did not identified any amplification | activates | not enhanced | able to rescue | – | – | –
recombinant PAX6 protein: recombinant PAX6 protein coupled with an 11R-tag (recPAX6, LD Biopharma Inc), positive control | – | – | – | – | – | – | – | – | – | – | rescued | – | –
Cc1nc2sccn2c(=O)c1CCN1CCC(=C(c2ccc(F)cc2)c2ccc(F)cc2)CC1 [Ritanserine, ritanserin] | – | able to rescue | 0.5 µg/mL | able to rescue | – | able to rescue | – | – | – | – | – | rescued | –
CNCC[C@H](Oc1cccc2ccccc12)c1cccs1 [Duloxetine, duloxetine] | – | able to rescue | 0.5 µg/mL | able to rescue | – | able to rescue | – | – | – | – | – | – | rescued
